# Laboratory results from PMC5550016, “Aminophosphinates against Helicobacter pylori ureolysis—Biochemical and whole-cell inhibition characteristics” (PLoS ONE, 2017).
# Where “and” joins values, the source holds several entries; their conditions need not be identical. Equal values may be shown once. Read-outs that look alike come from different tables or passages of the source.
# Key:
# [1] = target: T1, urease in intact E. coli (pGEM::ureOP) cells (Helicobacter pylori, UniProt B5Z674); experiment: Urease inhibition in whole cells of E. coli + pGEM::ureOP; type: cell-based; conditions: IC50 exceeding 2 mM considered not active
# T1 construct: plasmid pGEM::ureOP, which encodes the entire urease gene cluster, was used to produce recombinant H. pylori urease; expressed in transfected cells; host or cells: E. coli Rosetta2 (DE3) transformed with pGEM::ureOP
# T1 sequence (B5Z674 whole entry, looked up): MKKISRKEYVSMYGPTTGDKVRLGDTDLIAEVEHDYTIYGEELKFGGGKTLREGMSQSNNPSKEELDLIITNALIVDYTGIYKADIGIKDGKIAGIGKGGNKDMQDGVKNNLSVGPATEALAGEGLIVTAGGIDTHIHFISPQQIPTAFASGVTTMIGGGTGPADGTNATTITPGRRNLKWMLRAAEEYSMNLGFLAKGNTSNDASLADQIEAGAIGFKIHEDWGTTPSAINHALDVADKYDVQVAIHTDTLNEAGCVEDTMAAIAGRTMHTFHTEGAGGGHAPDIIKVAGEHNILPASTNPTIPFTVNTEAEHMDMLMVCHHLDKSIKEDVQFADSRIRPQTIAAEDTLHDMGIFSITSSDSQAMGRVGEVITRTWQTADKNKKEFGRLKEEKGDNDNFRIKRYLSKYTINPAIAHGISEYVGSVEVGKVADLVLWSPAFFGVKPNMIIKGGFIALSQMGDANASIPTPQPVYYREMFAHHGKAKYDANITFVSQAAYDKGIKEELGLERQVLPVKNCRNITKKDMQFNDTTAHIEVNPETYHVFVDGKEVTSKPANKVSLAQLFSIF
# Protocol: The expression strain E. coli + pGEM::ureOP was cultured in 150 mL of LB broth (Biocorp, Poland) with 100 μg/mL ampicillin (Polfa, Tarchomin, Poland) at 37°C and induced with IPTG (0.75 mM) and Ni^2+ (0.75 mM) during the exponential growth phase, which was determined by the OD600 measurements (OD600 = 0.6). Further expression was conducted for 24 h at 22°C. The bacterial culture (1 mL) was harvested via centrifugation (2 min, 20 376 x g, 37°C) and washed three times with PBS. The pellets from 1-mL samples of the expression cell culture were resuspended in 100 μL of PBS. The hydrolysis of urea that is catalyzed by whole bacterial cells was performed in 96-well plates (Rotilabo, U-profile). The reaction progress curves were obtained by the addition of bacterial cells (1×10^9 CFU/mL final concentration) into mixtures (300 μL final volume) that contained 5 mM urea and various inhibitor concentrations that depended on their inhibitory strength. Alternatively, the reaction was initiated via the addition of a concentrated solution of urea after a 120-min preincubation of bacterial cells with the inhibitor. Samples (50 μL) of the reaction mixture were removed after the appropriate reaction time. The enzymatic reactions in the samples were terminated via the introduction of 100 μL of phenol-sodium nitroprusside solution, immediately followed by the addition of 100 μL of NaOH-hypochlorite solution. The absorption of indophenol blue was measured at 650 nm using a TECAN-Sunrise absorbance reader equipped with a gradient filter and Magellan software. The IC50 values were determined from the linear regression of the urease activity versus the logarithm of the inhibitor concentration. The reaction was studied in the absence and in the presence of the inhibitor. The influence of dimethylformamide (DMF), which was used as a solvent for several compounds, was also determined.
# [2] = test system: human mammary gland MCF-10A; experiment: Sulforhodamine B antiproliferative assay, MCF-10A; type: cell-based; conditions: compound 0.5 mM, 72 h, read-out: % Proliferation inhibition ± SD
# Protocol: (§1) The BALB/3T3 cell line was cultured in Dulbecco MEM (Gibco, Scotland) supplemented with 10% (v/v) FBS (Sigma-Aldrich, Poznań, Poland) and 2 mM L-glutamine (Sigma-Aldrich, Poznań, Poland). The MCF-10A cell line was cultured in F-12 Nutrient mixture supplemented with 5% (v/v) horse serum (both Gibco, Scotland), 0.05 μg/mL cholera toxin, 10 μg/mL insulin, 0.5 μg/mL hydrocortisone, and 20 ng/mL EGFH (all Sigma-Aldrich, Poznań, Poland). The Eph4-Ev cell line was cultured in Dulbecco MEM supplemented with 2 mM L-glutamine, 10% (v/v) calf bovine serum (ATCC Rockville, Maryland, USA) and puromycin (Sigma-Aldrich, Poznań, Poland). The HEC A10 cell line was cultured in OPTI-MEM (IIET, Wroclaw, Poland) supplemented with 2 mM L-glutamine and 5% (v/v) FBS. All culture media were additionally supplemented with antibiotics: 100 U/mL penicillin and 100 μg/mL streptomycin (both Polfa-Tarchomin, Poland). During all experiments, cells were maintained in a humid atmosphere at 37°C and 5% CO2 and passaged twice a week using EDTA-Trypsin (pH 8; IIET, Wroclaw, Poland) solution as a detachment agent.
# (§2) This assay was used as previously described with minor modifications. Briefly, 24 h before adding the tested compounds, cells were seeded in 96-well plates (Sarstedt, Germany) in appropriate culture medium with 10^5 […] (100 μL/well). Cells were treated with each compound in at least four concentrations in the range from 500–4 μM for 72 h. Next, cells were fixed with 50 μL/well of 50% (w/v) trichloroacetic acid (Avantor Performance Materials, Gliwice, Poland). After a 1-hour incubation, the plates were washed several times with tap water, and 50 μL of 0.4% (w/v) solution of sulforhodamine B (Sigma-Aldrich, Germany) in 1% (v/v) acetic acid (Avantor Performance Materials, Gliwice, Poland) was added to each well. After a 30-min incubation at room temperature, unbound dye was washed out with 1% (v/v) acetic acid, whereas bound dye was solubilized with 10 mM unbuffered TRIS (Avantor Performance Materials, Gliwice, Poland) solution. The entire procedure was performed using an EL-406 washing station (BioTek Instruments, USA). Next, absorbance at 540 nm was measured using a Synergy H4 Hybrid Reader (BioTek Instruments, USA). Compounds at each concentration were tested in triplicate in a single experiment, and each experiment was repeated three times independently. The results were calculated using the Prolab-3 system based on Cheburator 0.4 software and was presented as proliferation inhibition percentages at the highest concentration used.
# [3] = test system: immortalized murine endothelial cell line from peripheral lymph node HEC A10; experiment: Sulforhodamine B antiproliferative assay, HEC A10; type: cell-based; conditions: Mus musculus, compound 0.5 mM, 72 h, read-out: % Proliferation inhibition ± SD
# Protocol: as §1, §2
# [4] = target: T2, urease in intact H. pylori J99 (Helicobacter pylori, UniProt P69997); experiment: Urease inhibition in whole cells of H. pylori J99; type: cell-based
# T2 construct: In the intact H. pylori J99 cells, the urease susceptibility profile was similar to that of E. coli (pGEM::ureOP); endogenous in cells
# T2 sequence (Q9ZMZ4 whole entry): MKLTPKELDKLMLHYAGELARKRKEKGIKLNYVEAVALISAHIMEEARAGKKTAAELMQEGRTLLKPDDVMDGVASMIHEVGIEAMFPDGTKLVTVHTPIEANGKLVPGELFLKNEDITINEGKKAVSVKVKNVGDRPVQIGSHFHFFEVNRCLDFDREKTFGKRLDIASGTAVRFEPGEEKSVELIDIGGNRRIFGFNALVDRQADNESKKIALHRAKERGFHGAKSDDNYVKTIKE
# T2 sequence (P69997 whole entry): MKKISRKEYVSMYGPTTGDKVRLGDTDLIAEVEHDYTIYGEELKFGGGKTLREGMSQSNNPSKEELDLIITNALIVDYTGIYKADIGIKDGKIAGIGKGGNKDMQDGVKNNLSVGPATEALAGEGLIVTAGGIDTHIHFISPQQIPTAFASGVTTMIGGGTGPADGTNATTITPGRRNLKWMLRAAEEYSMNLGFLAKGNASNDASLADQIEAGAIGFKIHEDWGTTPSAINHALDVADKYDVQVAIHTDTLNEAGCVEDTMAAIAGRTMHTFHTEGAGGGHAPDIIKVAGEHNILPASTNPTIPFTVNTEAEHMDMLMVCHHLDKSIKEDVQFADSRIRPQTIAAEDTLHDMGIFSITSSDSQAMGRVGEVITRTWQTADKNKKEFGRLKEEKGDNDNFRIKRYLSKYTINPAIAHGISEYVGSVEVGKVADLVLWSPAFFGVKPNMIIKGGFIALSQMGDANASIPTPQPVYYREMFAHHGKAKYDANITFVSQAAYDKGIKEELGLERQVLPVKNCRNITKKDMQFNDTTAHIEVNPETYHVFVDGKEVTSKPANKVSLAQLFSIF
# [5] = target: T3, purified recombinant urease from H. pylori (Helicobacter pylori, UniProt B5Z674); experiment: Inhibition of purified recombinant H. pylori urease (phenol-hypochlorite, Lineweaver-Burk); type: biochemical; conditions: Ki, 50 mM phosphate buffer pH 7.5, 37°C, 0.1–2.5 mM urea; competitive reversible inhibition
# T3 construct: plasmid pGEM::ureOP, which encodes the entire urease gene cluster, was used to produce recombinant H. pylori urease; made in house; host or cells: E. coli Rosetta2 (DE3) + pGEM::ureOP
# T3 sequence (B5Z674 whole entry, looked up): as the sequence (B5Z674 whole entry, looked up) above
# Protocol: The kinetic parameters of urease were determined by measuring the initial rates of the reactions in 50 mM phosphate buffer (pH 7.5) at 37°C. Ammonia was routinely quantified by the phenol hypochlorite method as reported previously.
# Inhibition studies were conducted by initiating the enzymatic reaction with the addition of the enzyme into assay mixtures (200 μL total volume) containing increasing concentrations of inhibitors and 0.1–2.5 mM urea. After 15 min of incubation at 37°C, the reaction was stopped by adding phenol-hypochlorite reagents and the absorbance of the formed indophenol blue complexes was measured at 650 nm. The Ki values were determined from Lineweaver-Burk plots after testing at least five inhibitor concentrations in a range that depended on their inhibitory strength. The concentration of inhibitor that caused the loss of 50% of the enzyme’s activity (IC50) was determined from the measurements that were performed at a urea concentration of 0.6 mM and calculated using the linear regression of the urease activity versus the logarithm of the inhibitor concentrations.
# The values of Ki and IC50 for all analyzed compounds were calculated using the appropriate equations in GraphPad Prism 5. Errors were reported with two significant digits, and each measured parameter was given with the same number of decimal places as its error [32].
# [6] = test system: mouse fibroblasts BALB/3T3; experiment: Sulforhodamine B antiproliferative assay, BALB/3T3; type: cell-based; conditions: compound 0.5 mM, 72 h, read-out: % Proliferation inhibition ± SD
# Protocol: as §1, §2
# [7] = test system: murine mammary gland epithelium Eph4-Ev; experiment: Sulforhodamine B antiproliferative assay, Eph4-Ev; type: cell-based; conditions: Mus musculus, compound 0.5 mM, 72 h, read-out: % Proliferation inhibition ± SD
# Protocol: as §1, §2
# [8] = target: purified urease from Sporosarcina pasteurii (SPU); set-up: method as in PMID 18717581, PMID 20684601, PMID 21559954, PMID 25699141; conditions: read-out: Ki against SPU; cited from earlier work
# [9] = target: purified urease from Proteus mirabilis (PMU); set-up: method as in PMID 18717581, PMID 20684601, PMID 21559954, PMID 25699141; conditions: read-out: Ki against PMU; cited from earlier work
# [10] = set-up: method as in PMID 9508511; conditions: pH 2; cited from earlier work
# [11] = IC500, without preincubation of cells with inhibitory compounds, 30-min reactions, 5 mM urea
# [12] = IC502h PBS, 2 h of preincubation with inhibitors in PBS
# [13] = cells grown with urea, 2 h of preincubation with inhibitors in PBS under microaerobic conditions, read-out: IC502h PBS
# [14] = cells grown with urea, 2 h of preincubation with inhibitors in growth medium under microaerobic conditions, read-out: IC502h medium
# [15] = cells grown with urea, without preincubation, read-out: IC500
# [16] = cells grown without urea, 2 h of preincubation with inhibitors in PBS under microaerobic conditions, read-out: IC502h PBS
# [17] = cells grown without urea, without preincubation, read-out: IC500
Structure (SMILES),"IC50 [1, 11]","IC50 [1, 12]",inhibition at 500 µM [2],inhibition at 500 µM [3],"IC50 [4, 13]","IC50 [4, 14]","IC50 [4, 15]","IC50 [4, 16]","IC50 ([4]; cells grown without urea, preincubated cells, read-out: IC50)","IC50 [4, 17]",Ki [5],inhibition at 500 µM [6],inhibition at 500 µM [7],"IC50 ([1]; read-out: IC500, without preincubation of cells with inhibitory compounds, 30-min reactions, 5 mM urea)","IC50 ([1]; read-out: IC502h PBS, 2 h of preincubation with inhibitors in PBS)","IC500 ([1]; without preincubation of cells with inhibitory compounds, 30-min reactions, 5 mM urea)",Ki [8],Ki [9],half-life [10]
CNCP(=O)(O)CN [Compound 7],880 ± 105 µM,440 ± 61 µM,0%,0%,456 ± 45 µM,574 ± 44 µM,> 2000 µM,418 ± 48 µM,< 500 µM,327 ± 68 µM,20.9 ± 2 µM,0%,3.9 ± 2.1%,–,–,–,–,–,–
CCCNCP(=O)(O)CN [Compound 9],746 ± 94 µM,306 ± 43 µM,0%,2.2 ± 1.5%,940 ± 59 µM,553 ± 44 µM,1500 ± 160 µM,883 ± 96 µM,–,772 ± 143 µM,22.1 ± 2.1 µM,0.7 ± 0.6%,0%,–,–,–,–,–,–
"NCP(=O)(O)CN [Compound 6, Bis(aminomethyl)phosphinic acid]",–,–,0%,7.7 ± 2.4%,> 2000 µM,> 2000 µM,> 2000 µM,611 ± 63 µM,–,1300 ± 239 µM,61 ± 9.2 µM,3.2 ± 1.6%,0%,> 2000 µM,> 2000 µM,complete lack of inhibitory effects,–,–,–
"CNCP(=O)(O)CO [Compound 4, N-methylaminomethyl-P-hydroxymethylphosphinic acid]",759 ± 106 µM,430 ± 63 µM,0%,0%,373 ± 48 µM,207 ± 11 µM,465 ± 42 µM,676 ± 23 µM,–,341 ± 41 µM,1.03 µM,0%,0%,–,–,–,0.43 µM,–,–
"CCCCCCNCP(=O)(O)CN [Compound 13, N-n-hexylaminomethyl-P-aminomethylphosphinic acid]",186 ± 30 µM,16.9 ± 2.2 µM,0.5 ± 0.4%,0%,608 ± 23 µM,205 ± 15 µM,510 ± 16 µM,742 ± 55 µM,–,597 ± 19 µM,0.29 µM and 0.294 µM,6.5 ± 3.6%,0%,–,–,–,–,0.2 µM,–
"CNCP(=O)(O)CNC [Compound 21, bis(N-methylaminomethyl)phosphinic acid]",1260 ± 189 µM,269 ± 39 µM,0%,0%,549 ± 15 µM,117 ± 7.4 µM,443 ± 24 µM,132 ± 21 µM,–,581 ± 37 µM,26.1 ± 1.8 µM,0%,2.2 ± 1.5%,–,–,–,–,–,–
"NP(N)(=O)NC(=O)c1ccc(F)cc1 [fluorofamide, N-(diaminophosphinyl)-4-fluorobenzamide]",–,–,–,–,–,–,–,–,–,–,–,–,–,–,–,–,–,–,5 min
"CNCP(=O)(O)O [Compound 1, N-methylaminomethylphosphonic acid]",164 ± 24 µM,110 ± 21 µM,0%,0%,349 ± 29 µM,202 ± 43 µM,400 ± 8.7 µM,598 ± 81 µM,–,316 ± 18 µM,38.3 ± 1.1 µM,2.7 ± 1.8%,1.3 ± 2.3%,–,–,–,–,–,–
"CN(C)CP(C)(=O)O [Compound 3, N,N-dimethylaminomethyl-P-methylphosphinic acid]",179 ± 32 µM,25.1 ± 4.9 µM,–,–,395 ± 37 µM,304 ± 16 µM,640 ± 18 µM,765 ± 31 µM,–,530 ± 24 µM,9.27 ± 0.35 µM,–,–,–,–,–,0.62 µM,–,–
